The subject of assay [1] is green mirid, Creontiades dilutus. Put plainly: Attract-and-kill Experiment 1: sprayed-on formulation with added insecticide (methomyl). In kind it is in vivo. Conditions: pigeon peas, Mullaley, about 2.3% volatiles in carrier, methomyl 0.5%, 5 m of row. The text has this:
The trial was set up in late flowering pigeon peas near Mullaley, NSW. The pheromone components were mixed with the formulation base from Magnet®, the commercial embodiment of the compositions described in WO 02/089577, the contents of which are incorporated herein by reference.
The plant volatile components of Magnet® were not included. The toxicant was methomyl at a concentration of 0.5% active ingredient.
There were four treatments: • 1) Control (no pheromone components added; carrier only) • 2) 12 ml hexyl hexanoate added to 500 ml of carrier • 3) 12 ml (E)-2 hexenyl hexanoate added to 500 ml of carrier • 4) 10 ml hexyl hexanoate plus 2 ml (E)-2 hexenyl hexanoate added to 500 ml carrier
Thus, in treatments 2-4 the final concentration of volatile pheromone components was about 2.3%. Treatment 4 had the two components in the optimum ratio as determined by trapping experiments.
Approximately 100 ml of each mixture was applied to 5 m of row of the pigeon peas, being shaken from a plastic bottle onto the tops of the plants. There were three replicates of each treatment, with buffer zones of 20 m surrounding them. Black plastic weed mat, 90 cm wide, was placed in the furrows on both sides,of the treated rows. It was secured around the bases of the plants using clothes pegs. This was done to facilitate finding dead GM. The treated areas were searched each morning over the next three days, and any dead GM found were sexed. Two pheromone traps, using blend GM2 as previously described, were also operated near the experimental site. At the conclusion of the experiment, five replicate samples using beat sheets were taken in the vicinity of the sprayed regions.

The test system is the same in assay [2]. Briefly: Field trapping bioassays: rubber septa lures in delta traps. In kind it is in vivo. The conditions noted are these: Experiment 1, soybeans, Cecil Plains; for Mean trap catch: 2 mg lure, mean ± s.e. The protocol: A series of trials involving blends of the major component, hexyl hexanoate and the minor component (E)-2 hexenyl hexanoate in various ratios, as coded and presented in Table 1, as well as the single components, were tested in a series of field trapping experiments. After the initial optimisation, two other components (methyl salicylate and (Z)-3 hexenyl acetate), found in both the male and female extracts, were tested by adding them to the optimised blend.
Lures were prepared using rubber septa. Each lure was loaded with 2 mg of the blend with 10% butylated hydroxytoluene (BHT) added as an anti-oxidant. Control lures were loaded with BHT only.
Field experiments were conducted at Cecil Plains (Qld), Narrabri, Tamworth, Mullaley and Armidale (NSW). The experimental designs were Latin Squares with treatment (pheromone blend), trap position and day as the factors. Traps were placed in a grid at intervals of 25-50 m, cleared daily, and rotated to different positions in the Latin Square designs. Delta traps made out of plastic (Corflute®) were used.
This experiment aimed to test blends against individual components of the female sex pheromone. A 4×4 Latin square design with 4 rotation periods, 4 blend locations and 4 treatments was set up in soybeans in Cecil Plains. Traps were located 100 m from each other and cleared every day before rotation. […] They were only caught in traps baited with the blend GM1 at an average of 3.9 males per trap. All insects caught were sexed morphologically and found to be males. […]
A 3×3 Latin Square experiment, replicated at two different sites in mung beans and one site in a slashed lucerne field was set up in Mullaley, NSW. This experiment involved blends GM2, GM12, GM13. In the mung beans at Site 1, blend type was the only significant factor (P<0.01).
Blends GM2, GM12, GM17 and GM19 were tested in a 4×4 Latin Square experiment in lucerne at Piallamore, NSW. […] Analysis of variance on the logarithmically transformed data indicated no significant differences (P>0.05) between the blends.
This experiment aimed at testing the effect of septa loading on trap catches. It involved the use of blend GM2 with a 2, 20 and 40 mg loading respectively. The ratio of hexyl hexanoate to (E)-2-hexenyl acetate in all blends was 5:1. The design was a 3×3 Latin Square set up at two different sites in mung beans at Mullaley, NSW. […] Trap location and day were also non significant (Table 11).
This experiment aimed at testing the effects of methyl salicylate and (Z)-3 hexenyl acetate, identified in both male and female extracts on the optimised blend. The hypothesis was that they might increase the attractiveness of the blend. Blends GM2, GM14, GM15 and GM16 were used in a 4×4 Latin Square experiment conducted in lucerne at Piallamore, NSW. […]

For assay [3], the system named is mullein bug, Campylomma verbasci. The conditions noted are these: blend released at rates of 91 and 183 μL per day; Smith et al. 1991, McBrien et al. 1994; cited from earlier work.
For assay [4], the system named is Phytocoris relativus. The conditions noted are these: Millar & Rice 1998; cited from earlier work.
For assay [5], the system named is Phytocoris californicus. Conditions: Millar & Rice 1998; Millar et al. 1997; cited from earlier work.
[6] abbreviates: Day 1, standard error in brackets.

Marks after values point to notes of the source that are not given here.

On to `CCCCCCOC(=O)CCCCC` [GM5, hexyl hexanoate], for which, in assay [1] (setting [6]), the “Mean number of female adults found (killed)” value is listed as 1.3 (0.3), the “Mean number of male adults found (killed)” value was 1.3 (0.3) and the “Mean number of nymphs found (killed)” value came out at 0.3. For the same compound, in assay [1] (Day 2), the “Mean number of female adults found (killed)” value was determined as 0, the “Mean number of male adults found (killed)” value is 0 and the “Mean number of nymphs found (killed)” value was 0. In addition, in assay [2], the “GM caught in baited traps, average” value is “did not attract any GM” and the Mean trap catch was 0.0 ± 0^b.

As for `CCCCOC(=O)CCC` [butyl butyrate], the “Attractiveness of lures in field studies” value in assay [3] was “inactive”.

Turning to `CCC/C=C/COC(=O)CCCCC` [GM6, (E)-2-hexenyl hexanoate], in assay [1] (setting [6]), the “Mean number of female adults found (killed)” value was 1.0 (1.0), the “Mean number of male adults found (killed)” value is 3.0 (1.1) and the “Mean number of nymphs found (killed)” value is reported as 0.3 (0.3). Besides, in assay [1] (Day 2), the “Mean number of female adults found (killed)” value is 0, the “Mean number of male adults found (killed)” value was determined as 1.3 and the “Mean number of nymphs found (killed)” value is recorded as 0. Besides, in assay [2], the “GM caught in baited traps, average” value was “did not attract any GM” and the Mean trap catch was 0.0 ± 0^b.

As to `C/C=C/COC(=O)CCC` [(E)-2-butenyl butyrate], the “Attractiveness of lures in field studies” value in assay [3] was “inactive”.

As to `CCCCC/C=C/COC(C)=O` [(E)-2-octenyl acetate], in assay [4], the “Inhibition of P. relativus males” value was “did not inhibit”.

For the compound `CCCCC/C=C/COC(=O)CCC` [(E)-2-octenyl butyrate], the “Inhibition of attraction of P. californicus males to traps” value in assay [5] was “inhibited attraction”.

Source of the values: US20070071783A1, “Pheromone attractants for the green mirid” (priority 2004, published 2007).
